From PMC3161979, “MrkH, a Novel c-di-GMP-Dependent Transcriptional Activator, Controls Klebsiella pneumoniae Biofilm Formation by Regulating Type 3 Fimbriae Expression” (PLoS Pathogens, 2011)

Target: T1, MrkH (MrkH-8×His) (Klebsiella pneumoniae, UniProt G3FT00)
T1 construct: full length, 234 aa, C-terminal 8×His tag, expressed from pET11a in E. coli BL21(DE3), about 28 kDa
Experiment: EMSA with […]-labelled mrkA promoter fragment
Format: biochemical
Settings: 200 µM c-di-GMP; pH 7.4; 30°C; 0-500 nM protein; allosteric activator of DNA binding; indirect read-out, no direct c-di-GMP binding measured

T1 sequence (G3FT00 entry or part of it): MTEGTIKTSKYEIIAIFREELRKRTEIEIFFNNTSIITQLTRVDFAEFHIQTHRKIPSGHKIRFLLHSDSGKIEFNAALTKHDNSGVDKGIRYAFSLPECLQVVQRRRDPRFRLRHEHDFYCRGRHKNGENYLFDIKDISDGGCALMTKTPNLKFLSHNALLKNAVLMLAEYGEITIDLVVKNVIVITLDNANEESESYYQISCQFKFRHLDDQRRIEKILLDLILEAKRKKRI

Nc1nc2c(ncn2[C@@H]2O[C@@H]3COP(=O)(O)O[C@H]4[C@@H](O)[C@H](n5cnc6c(=O)[nH]c(N)nc65)O[C@@H]4COP(=O)(O)O[C@H]3[C@H]2O)c(=O)[nH]1 [c-di-GMP]
EMSA with 32P-labelled mrkA promoter fragment: In the presence of c-di-GMP, the majority of the DNA was shifted
